The source of these data is US9675768B2, “Aerosolization device” (Nektar Therapeutics, priority 2008, dated 2017).

A short description of the series: In-vitro particle size distribution of the aerosol at the mouthpiece. The format is physicochemical. The protocol:
Percentage of inhaled mass is a measured quantity, and represents the amount of aerosolized medicament which would be inhaled by a patient. Chamber percent is measured and represents the amount remaining in the chamber 22. MMAD is the mass median aerodynamic size of the aerosolized droplets 79, and FPF<5 μm denotes the fine particle fraction under 5 microns, which represents a particle size distribution well suited for delivery to the deep lung. Inhaled mass may be measured by a variety of means, such as by scintigraphy, or by washing the device or component thereof, eluting the drug and directly measuring, e.g. by titration. Inhaled mass measurements are described, for example, in European Standard EN13544-1, which is incorporated by reference herein.
In this Example an in-vitro delivered dose and particle size distribution (PSD) of the device of FIG. 1 was measured, using a dose of 400 mg of amikacin (125 mg/ml; 3.2 ml). Thus, the in-vitro percentage inhaled mass of amikacin sulfate at the mouthpiece under simulated patient breathing was quantified. Under the following conditions: Tidal Volume (TV) was 500 mL; Respiratory rate (RR) was 15 and an inspiratory to expiratory ratio was 2:3. Three devices were tested. Also, an in-vitro particle size distribution (PSD) at the was determined. Mass balance was determined at the end of the first inhaled mass test run. Breathing parameters of the ventilator were verified pre- and post-inhaled mass test runs. The experimental set up is depicted in FIG. 9.

For the molecule `NCC[C@H](O)C(=O)N[C@@H]1C[C@H](N)[C@@H](O[C@H]2O[C@H](CN)[C@@H](O)[C@H](O)[C@H]2O)[C@H](O)[C@H]1O[C@H]1O[C@H](CO)[C@@H](O)[C@H](N)[C@H]1O.O=S(=O)(O)O.O=S(=O)(O)O` [amikacin, amikacin sulfate], the “Fine Particle fraction of less than 5 microns (FPF<5.0 μm)” value is recorded as “about 66%”. Besides, for the setting “400 mg dose”, the “Fine Particle Dose of less than 5 microns (FPD<5.0 μm)” value is given as “about 240 mg”. Further, where the note is “three hand-held devices”, the “Mass Median Aerodynamic Diameter (MMAD) of the aerosolized particles” value is on record as 3.7-3.8 μm.
